These results are taken from BindingDB's records for doi:10.1016/j.bmc.2016.12.017 (Sunshine Lake Pharma, 2017).

A value given as a limit tells only on which side of the number the result lay.

The test in a line: Inhibition of hepatitis B virus capsid assembly infected in human HepG2.215 cells assessed as reduction in viral DNA replication measured on day 7 by real time PCR analysis. A general note: In qPCR the cycle at which signal appears reflects the starting amount.
As a reminder, the EC50 is the concentration needed to bring the measured effect to its halfway point. For `CCOC(=O)C1=C(CN2CCS(=O)(=O)CC2)NC(c2nccs2)=NC1c1ccc(F)cc1Cl` (configuration not stated), the EC50 came out at 80 nM. Under `CCOC(=O)C1=C(CO)NC(c2nccs2)=NC1c1ccc(F)cc1Cl` (configuration not stated) stands > 16400 nM. The result for `CCOC(=O)C1=C(CN2CCOCC2)NC(c2ncn(C)n2)=NC1c1ccc(F)cc1Br` (configuration not stated) reads 4300 nM; that for `CC1=C(C(=O)OC(C)(C)C)C(c2ccc(F)cc2Cl)N=C(c2nccs2)N1` (configuration not stated), > 16400 nM. Consider `CCOC(=O)C1=C(CN2CCOCC2)NC(c2nccs2)=NC1c1ccc(F)cc1-c1ccc(C(F)(F)F)cc1` (configuration not stated), for which the EC50 was > 16400 nM. Under `CCOC(=O)C1=C(CNCCO)NC(c2nccs2)=NC1c1ccc(F)cc1Cl` (configuration not stated) stands 900 nM; under `CC1=C(C(=O)O)C(c2ccc(F)cc2Cl)N=C(c2nccs2)N1` (configuration not stated), > 16400 nM. The result for `CCOC(=O)C1=C(CN2CCOCC2)NC(n2nnc(C)n2)=NC1c1ccc(F)cc1Br` (configuration not stated) reads > 16400 nM. For `CCOC(=O)C1=C(COCCOC)NC(c2nccs2)=NC1c1ccc(F)cc1Cl` (configuration not stated), the EC50 stood at 200 nM. The result for `COC(=O)C1=C(C)NC(c2nccs2)=N[C@H]1c1ccc(F)cc1Cl` reads 100 nM. Regarding `CCOC(=O)C1=C(COC)NC(c2nccs2)=NC1c1ccc(F)cc1Cl` (configuration not stated), the EC50 was > 16400 nM. Under `CCOC(=O)C1=C(CN2CCCCC2)NC(c2nccs2)=NC1c1ccc(F)cc1Cl` (configuration not stated) stands 3500 nM; under `CCOC(=O)C1=C(CN2CCOCC2)NC(c2ncc(F)cc2F)=NC1c1ccc(F)cc1Br` (configuration not stated), 6 nM. Under `CCOC(=O)C1=C(CN2CCNCC2)NC(c2nccs2)=NC1c1ccc(F)cc1Cl` (configuration not stated) stands > 16400 nM; under `CCOCC1=C(C(=O)OCC)C(c2ccc(F)cc2Cl)N=C(c2nccs2)N1` (configuration not stated), 800 nM.

For the molecule `CCOC(=O)C1=C(CN2CCOCC2)N(C)C(c2nccs2)=NC1c1ccc(F)cc1Cl` (configuration not stated), the EC50 is > 16400 nM.

As for `CCOC(=O)C1=C(C)NC(c2nccs2)=NC1c1ccc(F)cc1Cl` (configuration not stated), the EC50 turned out to be 150 nM. Consider `CCOC(=O)C1=C(CN2CCOCC2)NC(c2nccs2)=NC1c1ccccc1Br` (configuration not stated), for which the EC50 turned out to be 10 nM. The result for `CCOC(=O)C1=C(CN2CCOCC2)NC(c2nccs2)=NC1c1ccc(F)cc1-c1ccc(OC)cc1` (configuration not stated) reads > 16400 nM. The result for `CCOC(=O)C1=C(CN2CC[S+]([O-])CC2)NC(c2nccs2)=NC1c1ccc(F)cc1Cl` (configuration not stated) reads 100 nM. Under `CC1=C(C(=O)OC(C)C)C(c2ccc(F)cc2Cl)N=C(c2nccs2)N1` (configuration not stated) stands > 16400 nM; under `C[C@H](Cn1cnc2c(N)ncnc21)OCP(=O)(O)O` [CHEBI:63625], 242 nM; under `CC1=C(C(N)=O)C(c2ccc(F)cc2Cl)N=C(c2nccs2)N1` (configuration not stated), > 16400 nM.

Regarding `CCOC(=O)C1=C(CN2CCOCC2)NC(c2nccn2C)=NC1c1ccc(F)cc1Br` (configuration not stated), the EC50 is 20 nM.

Regarding `CCOC(=O)C1=C(CN2CCOCC2)NC(c2nccs2)=NC1c1ccccc1F` (configuration not stated), the EC50 amounted to 74 nM.

In the case of `CCOC(=O)C1=C(CN2CCOCC2)NC(c2nnc(C)s2)=NC1c1ccc(F)cc1Br` (configuration not stated), the concentration giving a half-maximal response (EC50) is > 16400 nM. The result for `CCOC(=O)C1=C(CN2CCOCC2)NC(n2cnnn2)=NC1c1ccc(F)cc1Br` (configuration not stated) reads > 16400 nM; that for `Nc1ncnc2c1ncn2CCOCP(=O)(O)O` [9-[2-phosphonomethoxyethyl]adenine], 83 nM. Under `CCCOCC1=C(C(=O)OCC)C(c2ccc(F)cc2Cl)N=C(c2nccs2)N1` (configuration not stated) stands 1200 nM; under `CCOC(=O)C1=C(CN2CCOCC2)NC(c2nccs2)=NC1c1ccc(F)cc1F` (configuration not stated), 26 nM; under `CCOC(=O)C1=C(CN2CCSCC2)NC(c2nccs2)=NC1c1ccc(F)cc1Cl` (configuration not stated), 250 nM.

For `CCOC(=O)C1=C(CN)NC(c2nccs2)=NC1c1ccc(F)cc1Cl` (configuration not stated), the EC50 amounted to 5100 nM. `C=C1[C@H](CO)[C@@H](O)C[C@@H]1n1cnc2c(=O)[nH]c(N)nc21` [CHEBI:473990]: the EC50 was found to be 0.24 nM. Under `Cc1cn([C@@H]2C[C@@H](O)[C@H](CO)O2)c(=O)[nH]c1=O` [CHEBI:63624] stands 819 nM; under `CNC(=O)C1=C(C)NC(c2nccs2)=NC1c1ccc(F)cc1Cl` (configuration not stated), > 16400 nM; under `COC(=O)C1=C(C)NC(c2nccs2)=NC1c1ccc(F)cc1Cl` (configuration not stated), 250 nM. For `CC1=C(C(=O)NN)C(c2ccc(F)cc2Cl)N=C(c2nccs2)N1` (configuration not stated), the EC50 was > 16400 nM.
